Experimental data from patent publication US20090156477A1, “Compositions and Methods for Regulating Inflammatory Responses” (Massachusetts Institute of Technology, priority 2005, published 2009).

B1: FGF7: Recombinant human FGF7 from Sigma (protein, UniProt P21781 32-194, looked up)
Fibroblast growth factor 7: CNDMTPEQMATNVNCSSPERHTRSYDYMEGGDIRVRRLFCRTQWYLRIDKRGKVKGTQEMKNNYNIMEIRTVAVGIVAIKGVESEFYLAMNKEGKLYAKKECNEDCNFKELILENHYNTYASAKWTHNGGEMFVALNQKGIPVRGKKTKKEQKTAHFLPMAIT

Experiments:
Format in all cases: cell-based, human
Wnt1 = test: RT-PCR expression in Caco-2 cells after FGF treatment: Wnt1; conditions: normalized to PBS treatment, defined as 1.0
Source text: (§1) Five μg of total RNA was isolated from Caco-2 cells using Trizol reagent (Life Tech, Rockville, Md.) followed by reverse transcription with random hexamers. Specific oligomers were designed based on published sequences in order to detect the expression of specific human Wnt, Fz and syndecan isoforms. Sequences of primer pairs were as follows: Wnt-1: 5′-CACGACCTCGTCTACTTCGAC-3′ (SEQ ID NO: 17) and 5′-ACAGACACTCGTGCAGTACGC-3′ (SEQ ID NO: 18); Wnt-2: 5′-CATGGTGGTACATGAGAGCTAC-3′ (SEQ ID NO: 19) and 5′-GGCAAATACAACTCCAGCTGAG-3′ (SEQ ID NO: 20); Wnt-3: 5′-GAGAGCCTCCCCGTCCACAG-3′ (SEQ ID NO: 21) and 5′-CTGCCAGGAGTGTATTCGCATC-3′ (SEQ ID NO: 22); Wnt-3a: 5′-CAGGAACTACGTGGAGATCATG-3′ (SEQ ID NO: 23) and 5′-CCATCCCACCAAACTCGATGTC-3′ (SEQ ID NO: 24); Fz-1: 5′-GAACTTTCCTCCAACTTCATGGC-3′ (SEQ ID NO: 25) and 5′-CATTTCCATTTTACAGACCGG-3′ (SEQ ID NO: 26); Fz-2: 5′-GGTGAGCCAGCACTGCAAGAG-3′ (SEQ ID NO: 27) and 5′-CCTAAAAGTGAAATGGTTTCGATCG-3′ (SEQ ID NO: 28); Fz-10: 5′-ACACGTCCAACGCCAGCATG-3′ (SEQ ID NO: 29) and 5′-ACGAGTCATGTTGTAGCCGATG-3′ (SEQ ID NO: 30); and Syndecan-1/Sdc-1/CD138: 5′-CTTCACACTCCCCACACAGA-3′ (SEQ ID NO: 31) and 5′-TCCTGTTTGGTGGGCTTCTG-3′ (SEQ ID NO: 32). To control for total cell […], RT-PCR was also performed on β-actin using the primers 5′-GCCAGCTCACCATGGATGATGATAT-3′ (SEQ ID NO: 33) and 5′-GCTTGCTGATCCACATCTGCTGGAA-3′ (SEQ ID NO: 34). PCR was performed using the Advantage-GC cDNA kit from Clontech as per manufacturer's instructions (Palo Alto, Calif.).

Wnt3 = test: RT-PCR expression in Caco-2 cells after FGF treatment: Wnt3; conditions: normalized to PBS treatment, defined as 1.0
Source text: as §1

Fz2 = test: RT-PCR expression in Caco-2 cells after FGF treatment: Fz2; conditions: normalized to PBS treatment, defined as 1.0
Source text: as §1

Sdc-1 = test: RT-PCR expression in Caco-2 cells after FGF treatment: Sdc-1; conditions: normalized to PBS treatment, defined as 1.0
Source text: as §1

β-catenin = test: Immunohistochemistry for β-catenin in Caco-2 cells; conditions: compared to PBS treatment
Procedure: Caco-2 cells were grown to just prior to confluency on collagen IV coated glass slides. Cells were treated with PBS, FGF1, FGF2 and FGF7, and were incubated at 37° C. in a 5% CO2 humidified incubator for 1 hour, 4 hours, 24 hours or 48 hours, as noted. Cells were washed with PBS, fixed with 3.7% formalin for 10 minutes and washed again with PBS. Cells were treated with 0.1% Triton x-100 for 5 minutes to extract lipids. Cells were washed with PBS and preincubated with PBS supplemented with 1% bovine serum albumin. Primary antibodies were added for 4 hours at room temperature, and cells were washed with PBS. Primary antibodies used were as follows: rabbit anti-human ZO-1 (1:160; Zymed Laboratories, San Francisco, Calif.); mouse anti-human syndecan-1 (1:300; Santa Cruz Biotechnology); goat anti-human Fz-1 (1:125; Santa Cruz Biotechnology); rabbit anti-human caveolin-1 (1:250; Santa Cruz Biotechnology); goat anti-human glypican-1 (1:100; Santa Cruz Biotechnology); mouse anti-human E-cadherin (1:250; Zymed Laboratories); rabbit anti-human β-catenin (1:125; Cell Signaling Technology, Beverly, Mass.); and rabbit anti-human phospho-β-catenin (Ser33/37/Thr41; 1:125; Cell Signaling Technology, Beverly, Mass.).
Cells were then treated with secondary antibodies, Texas Red-labeled phalloidin (Molecular Probes, Eugene, Oreg.) or FLAER-FL1 (1:400; Protox Biotech, Victoria, BC, Canada) as appropriate for 1 hour in the dark at room temperature. […]
Cells, except those stained with phalloidin, were washed with PBS and stained with diamidino-2-phenylindole (DAPI) for 5 minutes at room temperature (Molecular Probes). […] Cells were examined by confocal microscopy (ZO-1 and phalloidin only), or by fluorescence microscopy. A Nikon HB10101AF fluorescence microscope was used and images were captured at room temperature using a Hitachi HVC20 camera and Scion image acquisition software. […]

Molecule	Wnt1 expression (intensity of RT-PCR images) (Wnt1)	Wnt3 expression (intensity of RT-PCR images) (Wnt3)	Fz2 expression (intensity of RT-PCR images) (Fz2)	Sdc-1 expression (intensity of RT-PCR images) (Sdc-1)	cytoplasmic β-catenin after 24 hours (β-catenin)
FGF1: Recombinant human FGF1 from Amgen	2.2	1.3	0.7	1.3	potentially reduced levels of cytoplasmic β-catenin
FGF2: Recombinant human FGF2, produced as described	2.7	1.3	1.7	0.9	induced markedly increased cytoplasmic β-catenin
B1	5.1	1.2	1.6	0.6	induced markedly increased cytoplasmic β-catenin
